According to patent publication US12083140B2, “Pharmaceutical composition for preventing and treating glaucoma, containing adenosine derivative” (FUTURE MEDICINE CO., LTD., priority 2017, dated 2024):
Values belong to the molecule of their own block, whether it stands above or below them.

Tests used:
[1] = system: TPA-induced mouse ear edema; experiment: Anti-inflammatory activity, TPA-induced mouse ear edema; type: in vivo, ICR mice; settings: for TPA-induced mouse ear edema: 0.5% in acetone
Method: In order to investigate the anti-inflammatory activity of the derivatives of the present invention, the animal experiments were performed as below. Seven-week-old male ICR mice were treated with TPA (12-O-tetradecanoylphorbol 13-acetate, […]) in the right ear. […] The same experiment was performed by treating hydrocortisone used as a treatment agent for inflammation as a control at the same concentration.
Subsequently, secondly, the adenosine derivative compound of the present invention was treated after 6 hours from TPA treatment. Twenty-four hours after TPA treatment, the animals were euthanized using the cervical dislocation method. Then, a right ear sample was obtained using a 6 mm diameter punch. The activity could be confirmed by weighing using a microbalance. The inhibition rate (%) was calculated using the following Equation 1.

[2] = target: T1, human adenosine A3 receptor (Homo sapiens, UniProt P0DMS8); experiment: Antagonistic effect and cAMP inhibition test on adenosine A3 receptor (CHO cells, Cl-IB-MECA, Schild analysis); type: cell-based; settings: different concentrations
T1 construct: expressed in transfected cells; host or cells: CHO (ATCC CCL-61)
T1 sequence (P0DMS8 1-318): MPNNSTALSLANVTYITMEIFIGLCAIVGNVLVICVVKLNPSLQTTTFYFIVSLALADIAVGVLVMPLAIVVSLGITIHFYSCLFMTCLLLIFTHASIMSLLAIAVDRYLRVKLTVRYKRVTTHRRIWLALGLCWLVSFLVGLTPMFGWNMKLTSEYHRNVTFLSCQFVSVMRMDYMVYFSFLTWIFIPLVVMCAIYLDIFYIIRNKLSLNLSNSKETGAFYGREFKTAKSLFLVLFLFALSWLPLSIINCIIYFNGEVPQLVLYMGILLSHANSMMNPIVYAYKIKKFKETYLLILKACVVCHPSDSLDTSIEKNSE

[3] = target: T2, adenosine A3 receptor in rats expressed in Chinese hamster ovary (CHO) cells (Rattus norvegicus, UniProt P28647); experiment: Binding affinity for rat adenosine A3 receptor expressed in CHO cells
T2 construct: expressed in transfected cells; host or cells: CHO
T2 sequence (P28647 1-320): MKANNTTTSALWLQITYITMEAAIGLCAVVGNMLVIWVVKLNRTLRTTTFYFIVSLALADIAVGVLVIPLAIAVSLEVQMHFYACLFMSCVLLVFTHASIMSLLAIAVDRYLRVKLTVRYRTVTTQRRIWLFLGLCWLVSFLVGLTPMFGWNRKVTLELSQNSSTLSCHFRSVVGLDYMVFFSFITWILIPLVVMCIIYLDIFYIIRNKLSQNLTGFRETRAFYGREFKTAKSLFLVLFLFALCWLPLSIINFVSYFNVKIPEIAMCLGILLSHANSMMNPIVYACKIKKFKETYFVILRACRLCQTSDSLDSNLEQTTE

[4] = target: T3, human adenosine A2B receptor (Homo sapiens, UniProt P29275); experiment: Agonist or antagonist activity at human adenosine A2B receptor; type: biochemical
T3 sequence (P29275 1-332): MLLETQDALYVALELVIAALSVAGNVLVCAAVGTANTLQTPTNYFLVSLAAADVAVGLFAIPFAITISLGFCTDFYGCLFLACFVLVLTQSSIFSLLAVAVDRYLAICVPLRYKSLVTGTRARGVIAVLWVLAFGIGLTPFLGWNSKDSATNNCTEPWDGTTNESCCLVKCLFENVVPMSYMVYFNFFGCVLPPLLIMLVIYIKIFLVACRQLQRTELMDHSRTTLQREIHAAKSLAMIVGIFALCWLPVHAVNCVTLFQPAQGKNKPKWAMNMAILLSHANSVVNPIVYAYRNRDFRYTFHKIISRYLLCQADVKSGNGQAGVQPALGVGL

[5] = system: TIMP (TIMP 1, TIMP2); experiment: TIMP enzyme protein and mRNA expression in trabecular meshwork tissue; type: in vivo, C57BL/6J mice; settings: Example 2 oral 20 mg/kg once a day and 10 mg/kg twice a day; acetazolamide 4.17 mg/kg once a day
Method: (§1) In Experimental Example 10, the expression amounts of these proteins and mRNAs in MMP and TIMP enzymes were measured for the eye tissues of the respective laboratory animals which the measurement of the intraocular pressure was completed, and the results are shown in FIG. 14 to FIG. 17. FIG. 14 and FIG. 15 show protein expression amounts of MMP (MMP2, MMP9) and TIMP (TIMP 1, TIMP2) enzymes, respectively. FIG. 16 and FIG. 17 show mRNA expression levels. In FIG. 14 to FIG. 17, Normal represents the expression level of the animal to which the dexamethasone was not treated in Experimental Example 10, Control represents the expression level of the animal to which only the excipient was administered in Experimental Example 10, and Acetazolamide represents the expression level of the animal to which acetazolamide was administered in Experimental Example 10.

[6] = system: MMP (MMP2, MMP9); experiment: MMP enzyme protein and mRNA expression in trabecular meshwork tissue; type: in vivo, C57BL/6J mice; settings: Example 2 oral 20 mg/kg once a day and 10 mg/kg twice a day; acetazolamide 4.17 mg/kg once a day
Method: as §1

[7] = system: extracellular matrix proteins (Fibronectin, SMA and MYOC); experiment: Anti-fibrotic effect on trabecular meshwork tissue (immunostaining); type: in vivo, C57BL/6J mice; settings: Example 2 oral 20 mg/kg once a day and 10 mg/kg twice a day; acetazolamide 4.17 mg/kg once a day
Method: In Experimental Example 10, the ocular tissues of each laboratory animal after measurement of intraocular pressure were extracted and sectioned and immunostaining using antibody was performed to confirm the expression of extracellular matrix proteins (Fibronectin, SMA and MYOC) and the results are shown in FIG. 13. In FIG. 13, Normal represents the trabecular meshwork of the animal which dexamethasone was not treated with in Experimental Example 10, Control represents the trabecular meshwork tissue of the animal to which only the excipient was administered in Experimental Example 10, Acetazolamide represents the trabecular meshwork tissue of the animal to which acetazolamide was administered in Experimental Example 10. Fluorescently stained tissue was observed under fluorescence microscope under the same conditions (magnification 200×, exposure time 1 sec).

[8] = target: T4, human adenosine A2A receptor (hA2A) (Homo sapiens, UniProt P29274); experiment: Binding affinity for human adenosine A2A receptor (HEK 293 cells, [3H]CGS-21680); settings: test concentration not given
T4 construct: expressed in transfected cells; host or cells: HEK 293
T4 sequence (P29274 whole entry): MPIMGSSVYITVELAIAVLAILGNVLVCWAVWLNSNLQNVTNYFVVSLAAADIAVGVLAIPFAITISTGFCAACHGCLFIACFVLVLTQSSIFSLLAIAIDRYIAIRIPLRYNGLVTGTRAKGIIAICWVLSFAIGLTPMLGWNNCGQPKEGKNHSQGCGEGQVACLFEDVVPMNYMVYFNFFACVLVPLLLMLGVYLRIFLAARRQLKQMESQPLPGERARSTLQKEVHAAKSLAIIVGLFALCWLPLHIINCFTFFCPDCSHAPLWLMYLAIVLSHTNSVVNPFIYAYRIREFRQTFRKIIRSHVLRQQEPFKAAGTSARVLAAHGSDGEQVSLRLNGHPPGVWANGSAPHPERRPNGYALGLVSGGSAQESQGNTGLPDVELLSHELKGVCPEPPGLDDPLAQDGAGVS

[9] = target: T5, human adenosine A1 receptor (hA1) (Homo sapiens, UniProt P30542); experiment: Binding affinity for human adenosine A1 receptor (CHO cells, [3H]CCPA); settings: test concentration not given
T5 construct: expressed in transfected cells; host or cells: CHO (ATCC CCL-61)
T5 sequence (P30542 1-326): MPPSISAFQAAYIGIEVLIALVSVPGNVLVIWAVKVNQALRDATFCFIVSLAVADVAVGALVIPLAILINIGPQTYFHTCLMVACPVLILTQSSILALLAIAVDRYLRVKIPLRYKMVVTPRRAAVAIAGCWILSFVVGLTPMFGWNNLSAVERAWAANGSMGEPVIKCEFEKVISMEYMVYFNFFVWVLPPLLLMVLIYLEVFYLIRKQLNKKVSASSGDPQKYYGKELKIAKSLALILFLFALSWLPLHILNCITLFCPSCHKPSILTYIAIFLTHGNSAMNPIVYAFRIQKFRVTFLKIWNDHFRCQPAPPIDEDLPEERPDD

[10] = target: T6, human adenosine A3 receptor (hA3) (Homo sapiens, UniProt P0DMS8); experiment: Binding affinity for human adenosine A3 receptor (CHO cells, [125I]AB-MECA); settings: read-out: K(nM) hA3
T6 construct: expressed in transfected cells; host or cells: CHO (ATCC CCL-61)
T6 sequence (P0DMS8 1-318): T1 sequence (P0DMS8 1-318)

[11] = 0.5% in mixed solvent of distilled water and acetone (1:4)
[12] = 0.5% in mixed solvent of DMSO and acetone (1:9)

- effect of the agonist Cl-IB-MECA in CHO cells treated with the compound [2]: inhibited depending on the concentration
- Ki [3]: 3.89 ± 1.15 nM
Molecule: O[C@@H]1[C@H](O)CS[C@H]1n1cnc2c(NCc3cccc(I)c3)nc(Cl)nc21 [Example 4, (2R,3R,4S)-2-(2-chloro-6-(3-iodobenzylamino)-9H-purin-9-yl)tetrahydrothiophene-3,4-diol]
- TPA-induced mouse ear edema [1]: reduced by a small amount
- TPA-induced mouse ear edema ([1]; listed as compound 4): had an effect of reducing edema
- activity as an agonist or an antagonist at human adenosine A2B receptor [4]: did not show activity as an agonist or an antagonist

- melting point: 188.8 to 189.8 °C
Molecule: COc1ccc(Cl)cc1CNc1nc(Cl)nc2c1ncn2[C@@H]1SC[C@@H](O)[C@H]1O [Example 6, (2R,3R,4S)-2-(2-chloro-6-(5-chloro-2-methoxybenzylamino)-9H-purin-9-yl)tetrahydrothiophene-3,4-diol]
- inflammation inhibition rate [1, 11]: 34%

- melting point: 254 to 256.9 °C
Molecule: O=C(O)c1cccc(CNc2nc(Cl)nc3c2ncn3[C@@H]2SC[C@H](O)[C@@H]2O)c1 [Example 9, 3-((2-chloro-9-((2R,3S,4R)-3,4-dihydroxytetrahydrothiophen-2-yl)-9H-purin-6-ylamino)methyl)benzoic acid]

- melting point: 183 to 184 °C
Molecule: O[C@@H]1[C@H](O)CS[C@H]1n1cnc2c(NCc3cccc(Br)c3)ncnc21 [Example 13, (2R,3R,4S)-2-(6-(3-bromobenzylamino)-9H-purin-9-yl)tetrahydrothiophene-3,4-diol]

- melting point: 181.5 to 181.7 °C
Molecule: O[C@@H]1[C@H](O)CO[C@H]1n1cnc2c(NCc3cccc(Br)c3)nc(Cl)nc21 [Example 15, (2R,3R,4R)-2-(6-(3-bromobenzylamino)-2-chloro-9H-purin-9-yl)tetrahydrofuran-3,4-diol]
- inflammation inhibition rate [1, 12]: 59%

- melting point: 195.5 to 195.8 °C
Molecule: O[C@@H]1[C@H](O)CO[C@H]1n1cnc2c(NCc3cccc(I)c3)nc(Cl)nc21 [Example 16, (2R,3R,4R)-2-(6-(3-iodobenzylamino)-2-chloro-9H-purin-9-yl)tetrahydrofuro-3,4-diol]
- inflammation inhibition rate [1, 12]: 79%

- % hA2A [8]: −8.3%
- % hA1 [9]: 22.0%
- Ki [10]: 24.8 ± 8.1 nM
Molecule: (2R,3R,4S)-2-(2-chloro-6-(naphthalen-1-ylmethylbenzylamino)-9H-purin-9-yl)tetrahydrothiophene-3,4-diol [Example 8]

Further lines, the molecule ahead of its results:

Molecule: O[C@@H]1[C@H](O)CS[C@H]1n1cnc2c(NCc3cccc(F)c3)nc(Cl)nc21 [Example 1, (2R,3R,4S)-2-(2-chloro-6-(3-fluorobenzylamino)-9H-purin-9-yl)tetrahydrothiophene-3,4-diol]
- melting point: 183.2 to 183.5 °C

Molecule: O[C@@H]1[C@H](O)CS[C@H]1n1cnc2c(NCc3cccc(Br)c3)nc(Cl)nc21 [Example 3, (2R,3R,4S)-2-(2-chloro-6-(3-bromobenzylamino)-9H-purin-9-yl)tetrahydrothiophene-3,4-diol]
- melting point: 184 to 185 °C
- TPA-induced mouse ear edema [1]: reduced by a small amount

Molecule: O[C@@H]1[C@H](O)CS[C@H]1n1cnc2c(NCc3ccccc3Cl)nc(Cl)nc21 [Example 5, (2R,3R,4S)-2-(2-chloro-6-(2-chlorobenzylamino)-9H-purin-9-yl) tetrahydrothiophene-3,4-diol]
- melting point: 198.7 to 199.7 °C
- inflammation inhibition rate [1, 11]: 17%

Molecule: COc1ccccc1CNc1nc(Cl)nc2c1ncn2[C@@H]1SC[C@@H](O)[C@H]1O [Example 7, (2R,3R,4S)-2-(2-chloro-6-(2-methoxybenzylamino)-9H-purin-9-yl)tetrahydrothiophene-3,4-diol]
- melting point: 188 °C
- inflammation inhibition rate [1, 11]: 53%

Molecule: O[C@@H]1[C@H](O)CS[C@H]1n1cnc2c(NCc3cccc(I)c3)ncnc21 [Example 14, (2R,3R,4S)-2-(6-(3-iodobenzylamino)-9H-purin-9-yl) tetrahydrothiophene-3,4-diol]
- melting point: 198.8 to 199.8 °C

Molecule: CC(=O)Nc1nnc(S(N)(=O)=O)s1 [acetazolamide, reference compound]
- protein and mRNA expression levels of TIMP enzyme compared with the normal group [5]: significantly increased
- protein and mRNA expression levels of MMP enzyme compared with the normal group [6]: significantly decreased
- expression of fibronectin, SMA and MYOC protein in trabecular meshwork tissue [7]: increased expression
